{"source": "patent US9266864B2", "about": "“VEGFR3 inhibitors” (CANCER THERAPEUTICS CRC PTY LIMITED, priority 2012, dated 2016)", "target": "T1, P397Y-FAK (Homo sapiens, UniProt Q05397)", "T1 construct": "endogenous in cells; host or cells: MDA-231-LNA", "T1 sequence (Q05397 2-1052 limits assumed, stated change not applied)": "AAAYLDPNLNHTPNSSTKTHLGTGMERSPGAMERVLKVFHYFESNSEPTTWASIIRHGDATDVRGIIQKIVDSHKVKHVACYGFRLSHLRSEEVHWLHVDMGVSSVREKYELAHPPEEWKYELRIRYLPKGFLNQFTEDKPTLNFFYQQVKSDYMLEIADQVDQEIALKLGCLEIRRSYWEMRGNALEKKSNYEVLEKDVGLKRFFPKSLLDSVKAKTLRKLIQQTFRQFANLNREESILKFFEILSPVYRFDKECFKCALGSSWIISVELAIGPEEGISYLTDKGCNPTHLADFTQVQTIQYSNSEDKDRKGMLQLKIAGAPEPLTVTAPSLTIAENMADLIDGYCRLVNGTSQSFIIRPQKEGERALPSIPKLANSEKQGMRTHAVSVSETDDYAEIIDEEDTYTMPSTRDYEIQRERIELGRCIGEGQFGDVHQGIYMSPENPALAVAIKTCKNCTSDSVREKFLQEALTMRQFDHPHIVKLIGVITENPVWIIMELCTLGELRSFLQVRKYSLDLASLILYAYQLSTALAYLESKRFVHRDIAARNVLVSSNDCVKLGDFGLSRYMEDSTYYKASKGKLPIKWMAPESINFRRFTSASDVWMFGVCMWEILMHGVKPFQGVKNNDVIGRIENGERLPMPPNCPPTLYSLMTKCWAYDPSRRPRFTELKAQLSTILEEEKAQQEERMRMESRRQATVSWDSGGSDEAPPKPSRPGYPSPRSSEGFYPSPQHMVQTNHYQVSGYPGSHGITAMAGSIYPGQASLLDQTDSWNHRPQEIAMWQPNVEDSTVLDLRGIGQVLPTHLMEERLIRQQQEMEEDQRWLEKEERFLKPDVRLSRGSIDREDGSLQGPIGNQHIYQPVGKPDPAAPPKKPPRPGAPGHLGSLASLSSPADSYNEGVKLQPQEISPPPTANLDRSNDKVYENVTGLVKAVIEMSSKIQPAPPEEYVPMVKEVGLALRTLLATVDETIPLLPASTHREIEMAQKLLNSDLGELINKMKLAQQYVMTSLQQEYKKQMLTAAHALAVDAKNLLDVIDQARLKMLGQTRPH", "assay": "P397Y-FAK Inhibition MSD Platform Cellular Biomarker Assay", "format": "cell-based", "conditions": "MDA-231-LNA cells; concentration not given", "experimental": "96-well plates (cat#MA6000, Meso Scale Discovery) are coated with 30 μL/well of mouse monoclonal FAK antibody [63D5] (cat#ab72140, Abcam) pre-diluted in PBS to a concentration of 1 mg/mL. The plates are sealed with adhesive film and incubated for 16 hours at 4° C. The antibody is then flicked out of the plates and 150 μL of 3% [w/v] Blocker A (cat#R93AA-1, Meso Scale Discovery) is added. The plates are resealed with adhesive film and incubated at room temperature on a shaker set at medium speed for 2 hours. The plates are then washed three times with a solution containing 50 mM Tris-HCl pH 7.5, 0.15 M NaCl and 0.02% Tween-20, before cell lysate addition described below.\nCells are split 1:2 into T150 cell culture flasks 2 days prior to compound treatment. On the day prior to compound treatment, 200 μL media containing 20,000 cells is seeded into all wells of white, clear-bottom, TC treated, μclear, 96-well microtitre plates (cat#655098, Greiner Bio-One), and the plates are incubated at 37° C. and 5% CO2 for 36 hours. 1 μL/well of compound is then added from dilution series prepared in DMSO. […] 150 μL/well of Read Buffer T+Surfactant (cat#R92TC-1, Meso Scale Discovery) is then added, and pFAK-397 levels quantified using a Meso Scale Discovery SECTOR Imager 6000 instrument. […]", "data": [{"smiles": "NC(=O)Cc1ccccc1CCc1nc(Nc2ccc(C3CNC3)cc2)ncc1C(F)(F)F", "note": "[Compound 20, 2-(2-(2-(2-((4-(azetidin-3-yl)phenyl)amino)-5-(trifluoromethyl)pyrimidin-4-yl)ethyl)phenyl)acetamide]", "values": [{"measurement": "P397Y-FAK inhibition (percent printed in the IC50 column)", "result": "<50", "unit": "%"}]}]}
